Results: patent US20240226108A9, “TREATMENT OF BRAIN INJURIES” (ASTON UNIVERSITY, priority 2021, published 2024)

Tests used:
rat brain tissue slices = test: calcein AM cell viability staining of brain slices subjected to hypoxia; assay type: cell-based; details: calcein AM MFI, Maraviroc 50 μM, trifluoperazine 100 μM, 1 hour pre-treatment, 30 minutes hypoxia; for Significant? (Dunn's multiple comparisons test vs. vehicle control): Alpha 0.05; for Mean rank 2 (mean rank of treatment group, Kruskal-Wallis): vehicle control mean rank 11.73
Experimental: Brain slices were pre-treated for 1 hour with final concentrations of Maraviroc (50 μM), trifluoperazine (100 μM), and both drugs trifluoperazine and maraviroc against vehicle control for 1 hour, before being subjected to 30 minutes of hypoxia.
Damage to the brain tissue was determined by staining the tissue with acetoxymethyl calcein (calcein AM), available from Abcam Ltd, Cambridge, UK and Thermo Fisher, USA. The assay is a quantitative assay used to determine cell viability.

CCR5 = CCR5 (Mus musculus, UniProt P51682); details: compared with CCR5 knockdown; cited from earlier work
CCR5, sequence (P51682 whole entry): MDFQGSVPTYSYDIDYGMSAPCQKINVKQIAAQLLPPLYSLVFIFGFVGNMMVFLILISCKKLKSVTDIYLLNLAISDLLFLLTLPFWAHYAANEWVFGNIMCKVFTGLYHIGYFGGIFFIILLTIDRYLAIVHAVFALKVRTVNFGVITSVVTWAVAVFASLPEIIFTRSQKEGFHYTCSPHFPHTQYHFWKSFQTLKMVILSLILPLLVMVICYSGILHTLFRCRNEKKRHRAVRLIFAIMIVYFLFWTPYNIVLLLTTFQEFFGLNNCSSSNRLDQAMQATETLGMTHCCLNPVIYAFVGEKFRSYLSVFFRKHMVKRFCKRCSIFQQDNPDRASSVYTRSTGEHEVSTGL

Compound	Significant? (Dunn's multiple comparisons test vs. vehicle control) (rat brain tissue slices)	Mean rank diff. (Dunn's multiple comparisons test, vehicle control vs. treatment) (rat brain tissue slices)	Summary (significance stars, Dunn's multiple comparisons test vs. vehicle control) (rat brain tissue slices)	Z (Dunn's multiple comparisons test vs. vehicle control) (rat brain tissue slices)	Mean rank 2 (mean rank of treatment group, Kruskal-Wallis) (rat brain tissue slices)	motor recovery post-stroke and cognitive decline post traumatic brain injury (CCR5)
Maraviroc	Yes	−22.07	** ((**) p≤0.01)	3.460	33.80	produced similar effects on motor recovery post-stroke and cognitive decline post traumatic brain injury
CN1CCN(CCCN2c3ccccc3Sc3ccc(C(F)(F)F)cc32)CC1 [TFP, trifluoperazine]	Yes	−25.87	*** ((***) p≤001)	4.056	37.60	–
